Data on 3 molecules can be found in paper PMC11267536, “Gonococcal Mimitope Vaccine Candidate Forms a Beta-Hairpin Turn and Binds Hydrophobically to a Therapeutic Monoclonal Antibody” (JACS Au, 2024).

Experiment [1] deals with mAb 2C7. The experiment is described as follows: WaterLOGSY, CPMG and 1D NH chemical shift perturbation NMR. The format is binding, Human-mouse chimeric. As for the experimental part:
(§1) NMR spectra were recorded on a Bruker AVANCE NEO 600-MHz equipped with a cryo probe, and data acquisition and processing were performed with TOPSPIN 4.1.1 software. Samples were prepared in H2O:D2O (90:10) buffered with 50 mM phosphate at pH 7.4, using 3 mm NMR tubes. NMR spectra were acquired using antibody concentrations of 10–20 μM, a peptide concentration of 1 mM, and an antibody:peptide ratio from 1:18 to 1:50, depending on the NMR experiments, and temperatures of 288 and 298 K; 0.05 mM amount of deuterated trimethylsilylpropanoic acid (TSP) was used as an internal standard.
The waterLOGSY experiments were performed on CP2 in the absence and presence of the mAb, using a conventional 1D NOE-ePHOGSY pulse sequence[36] provided in the Bruker library (ephogsygpno.2). The bulk water was selectively irradiated by 1D NOESY, and the solvent suppression was modified into a double pulsed-field gradient (DPFG) perfect-echo.[37] A mixing time of 2s was used in order to compare the WaterLOGSY experiment with the STD NMR experiment.
A mixture of 20 μM mAb2C7 and 1 mM CP2 peptide was prepared in deuterated phosphate saline buffer pH 7.4. Pseudo 2D experiments (cpmg_esgp2d) were used for detecting T2 spin–spin relaxation measurements. Data were analyzed by fitting the equation f(t) = Io × exp (−t/T) using Dynamics Center 2.7.1.

The target in experiment [2] is mAb 2C7. The experiment is described as follows: STD NMR titration of CP2 into mAb 2C7. Type of experiment: binding, Human-mouse chimeric. Conditions: STD-AF of methyl signals, one-site Langmuir model, saturation time 2 s, CP2 0.17-1.70 mM, 50 mM phosphate pH 7.4, H2O:D2O 90:10, 288 and 298 K, read-out: apparent equilibrium dissociation constant (KD). As for the experimental part: Chimeric mAb 2C7 and the sequence for the VH and VL regions of murine mAb 2C7 have been described previously.[18] Human-mouse chimeric mAb 2C7 was expressed in ExpiCHO cells and purified by affinity chromatography of tissue culture supernatants using Protein A/G agarose. Chimeric Fab 2C7 was expressed in CHO cells and purified by affinity chromatography with an anti-CH1 antibody (LakePharma).
as §1
STD NMR experiments were acquired with 32,000 data points and zero-filled up to 64,000 data points prior to processing. The protein resonances were selectively irradiated using 40 Gauss pulses with a length of 50 ms, setting the off-resonance pulse frequency at 40 ppm and the on-resonance pulse at 5.5 ppm. An excitation sculpting with gradient pulses (esgp) was applied for the suppression of water signals. […]

The subject of the next experiment is gonococci. Particulars: ref previous studies, cited from earlier work. The text has this: The spread of multidrug-resistant strains of Neisseria gonorrhoeae, the etiologic agent of gonorrhea, represents a global health emergency. Therefore, the development of a safe and effective vaccine against gonorrhea is urgently needed. […] Furthermore, we identified a peptide, cyclic peptide 2 (CP2) that mimicked the 2C7 LOS epitope, elic ... || Neisseria gonorrhoeae is a leading cause of sexually transmitted infections, which include urethritis, cervicitis, pharyngitis, locally invasive (epididymitis and salpingo-oophritis) and disseminated infections, and in rare cases, meningitis and endocarditis.[1] Infections in women are frequently asymptomatic, which augments the spread of bacteria among populations. Further, strains have emerged that are resistant to multiple antibiotics, which have the potential to lead to untreatable infections. […] Therefore, a random peptide display library was used to identify a peptide, designated as PEP1, which bound mAb 2C7. […] Subsequently, PEP1 was covalently cyclized to yield CP2 and configured as a tetramer (designated tetra-MAP CP2 or TMCP2). TMCP2 adjuvanted wit ...

The subject of another experiment is gonococcal colonization. Conditions: cited from earlier work. An excerpt:
The spread of multidrug-resistant strains of Neisseria gonorrhoeae, the etiologic agent of gonorrhea, represents a global health emergency. Therefore, the development of a safe and effective vaccine against gonorrhea is urgently needed. […] Furthermore, we identified a peptide, cyclic peptide 2 (CP2) that mimicked the 2C7 LOS epitope, elic ... || Neisseria gonorrhoeae is a leading cause of sexually transmitted infections, which include urethritis, cervicitis, pharyngitis, locally invasive (epididymitis and salpingo-oophritis) and disseminated infections, and in rare cases, meningitis and endocarditis.[1] Infections in women are frequently asymptomatic, which augments the spread of bacteria among populations. Further, strains have emerged that are resistant to multiple antibiotics, which have the potential to lead to untreatable infections. Thus, the development of vaccines and novel therapeutics, including nonantibiotic approaches, is ... || Gonococcal lipooligosaccharide (LOS) is the most abundant component of the outer membrane. Antibodies against LOS can elicit complement-dependent bacterial killing, and therefore, LOS has been pursued as a vaccine candidate (reviewed in ref ([12])). A murine anti-LOS monoclonal antibody (mAb) 2C7 was isolated almost four decades ago.[13],[14] […]

The subject of experiment [3] is mAb 2C7. The experiment is described as follows: Isothermal titration calorimetry (ITC). Type of experiment: binding, Human-mouse chimeric. Conditions: 20 °C. The protocol: Isothermal titration calorimetry (ITC) experiments were carried out at 20 °C by using a MicroCal PEAQ-ITC instrument. mAb and peptide CP2 were both dialyzed against PBS pH 7.4 to avoid buffer mismatch between solutions. A solution of mAb with a concentration of 30 μM was loaded into the cell, and for each measurement, CP2 was added to the antibody solution through a microsyringe under a stirrer speed of 750 rpm. The titration was performed by adding 2 μL from a 1.67 mM CP2 solution for 19 injections using a time duration of 150 s. The data were analyzed and fitted by using the one-binding site model. The standard thermodynamic parameters of equilibrium were calculated by the following equation[45]: [drawing 2] 2 where ΔG is the Gibb’s free energy, Ka is the equilibrium constant, R is the gas constant, T is the temperature in kelvin, ΔH is the enthalpy change, and ΔS is the entropy change.

Experiment [4] addresses human-mouse chimeric mAb 2C7 (mouse | human | mouse VL, human constant region). The experiment is described as follows: ITC; 20 °C, PBS pH 7.4; 30 uM mAb in the cell, 1.67 mM CP2 in the syringe, 19 injections of 2 uL; one-site model. (In general: ITC needs no label: the signal is the heat of the interaction.)
Experiment [5] shares this target. The experiment is described as follows: NMR titration; STD NMR; CP2 (0.17 to 1.70 mM) titrated into a solution of mAb; 50 mM phosphate pH 7.4, H2O:D2O 90:10; saturation time 2 s; one-site Langmuir isotherm; apparent.
The next experiment deals with gonococcal strains. Conditions: cited from earlier work. An excerpt: Gonococcal lipooligosaccharide (LOS) is the most abundant component of the outer membrane. Antibodies against LOS can elicit complement-dependent bacterial killing, and therefore, LOS has been pursued as a vaccine candidate (reviewed in ref ([12])). A murine anti-LOS monoclonal antibody (mAb) 2C7 was isolated almost four decades ago.[13],[14] 2C7 recognizes an LOS epitope that comprises lactose from heptose (Hep) II; lactose from HepI or GlcNAc may also contribute to the 2C7 epitope (see Supporting Information, Scheme S1). This mAb reacted with 94% of 68 gonococcal strains examined in the cerv ...

Values joined by “and” are separate entries in the source; they are usually repeats but may differ in a detail not shown here. Equal values may be shown once. Bridges are numbered along the chain shown (N, C = ends).

For the molecule “Br-Ac-Gly-Pro-Ile-Pro-Val-Leu-Asp-Glu-Asn-Gly-Leu-Phe-Ala-Pro-Gly-Pro-Cys-Lys-OH (sidechain bridge or staple) [CP2]”, the “transverse relaxation time T2 (CPMG)” value with mAb 2C7 [1] (20 μM mAb 2C7, 1 mM CP2, deuterated phosphate saline buffer pH 7.4) is reported as “indicative of complex formation”. For the same molecule, the WaterLOGSY binding result with mAb 2C7 [1] (change in peak phase from free to bound state, mixing time 2 s) is on record as “the change in the peak phase passing from the free to the bound state is indicative of binding”. The “1D NH chemical shift perturbation” value in the experiment with mAb 2C7 [1] (mixture of mAb 2C7 with CP2) is “a few chemical shift perturbations”. Further, the Kd on mAb 2C7 [2] amounted to 61 µM. Besides, the bactericidal antibodies entry in the experiment on gonococci (mice) is on record as “elicited bactericidal antibodies in mice”. Moreover, the active protection entry in the experiment with gonococcal colonization (mouse vaginal colonization model, ref previous studies) is recorded as “actively protected in a mouse vaginal colonization model”. Also, in the experiment with mAb 2C7 [3] (PBS pH 7.4), the ΔG was -6.24 kcal/mol; the “ΔG (exothermic process)” value was under 0; the ΔH is -1.71 ± 0.0707 kcal/mol and -1.71 kcal/mol; the “−TΔS” value was -4.52 kcal/mol. In addition, the “binding stoichiometry N (sites)” value in the experiment with mAb 2C7 [3] (one-site binding model, PBS pH 7.4) is 1.89 ±4.4e-2 and 1.89. For the same molecule, at mAb 2C7 [3] (one-site binding model, PBS pH 7.4, mAb 30 μM, 1.67 mM CP2, 19 injections of 2 μL), the Kd turned out to be 23 µM.
For orientation: stoichiometry N means the number of molecules, sites or subunits per partner or assembly. For GPIPVLDENGLFAPGPCK-OH (bridge N-17; not fully specified (N-terminus, bridges)) [cyclic peptide 2 (CP2)], in experiment [4], the Kd is 23 µM, the dH was -1.71 kcal/mol and the stoichiometry N worked out at 1.89 CP2 per mAb. Moreover, in experiment [5], the Kd worked out at 61 µM.

B1: Murine mAb 2C7: murine anti-LOS monoclonal antibody 2C7 (antibody, V domains shown)
VH: EVQLQQSGPELVKPGSSVKISCKGSGYTFTDYNMEWVKQSHGKSLEWIGVINPNNRFTSYNQNFRGKATLTVDKSSSTAYMDLRSLTSEDSAVYFCAGSRWYQYDYWGQGTTLTVSS
VL: QVVVTQESALTTSPGETVTLTCRSSTGAVTTSNYANWVQEKPDHLFTGLIGGINNRAPGVPARFSGSLIADKAALTITGAQTEDEAIYFCALWYSNHWVFGGGTKLTVL
As for B1, the complement-dependent bactericidal activity result in the experiment with gonococci (against gonococci) was “elicits complement-dependent bactericidal activity against gonococci”. The gonococcal strains recognized in the experiment on gonococcal strains (68 gonococcal strains examined in the cervical secretions of women) was 94%. Moreover, the clinical isolates recognized in the experiment with gonococcal strains (75 minimally passaged clinical isolates, Nanjing, China) is 100%. Also, the “duration and burden of gonococcal colonization” value in the experiment on gonococcal colonization (mouse vaginal model) was “decreased the duration and burden of gonococcal colonization”.
